Results taken from PMC3914206.

How the values were obtained:
Type in all cases: binding
Design in all cases: KINOMEscan: ABL1(F317L)-phosphorylated / KINOMEscan: ABL1(H396P)-nonphosphorylated / KINOMEscan: ABL1(H396P)-phosphorylated / KINOMEscan: ABL1(M351T)-phosphorylated / KINOMEscan: ABL1(T315I)-phosphorylated / KINOMEscan: ABL1-nonphosphorylated / KINOMEscan: ABL1-phosphorylated / KINOMEscan: ACVR2A / KINOMEscan: ACVR2B / KINOMEscan: ADCK3 / KINOMEscan: ADCK4 / KINOMEscan: AKT1 / KINOMEscan: AKT3 / KINOMEscan: ALK / KINOMEscan: ARK5 / KINOMEscan: AURKA / KINOMEscan: AURKC / KINOMEscan: BIKE / KINOMEscan: BMPR1A / KINOMEscan: BMPR1B / KINOMEscan: BMX / KINOMEscan: BRK / KINOMEscan: BRSK1 / KINOMEscan: BRSK2 / KINOMEscan: CAMK1 / KINOMEscan: CAMK1D / KINOMEscan: CAMK1G / KINOMEscan: CAMK2A / KINOMEscan: CAMK2B / KINOMEscan: AAK1 / KINOMEscan: CAMK2D / KINOMEscan: CAMK2G / KINOMEscan: ABL1(F317I)-nonphosphorylated / KINOMEscan: ABL1(F317I)-phosphorylated / KINOMEscan: ABL1(F317L)-nonphosphorylated: unit: % Ctrl
Settings in all cases: Compound Concentration 10 µM
panel of 442 kinases [1] = target: T1, panel of 442 kinases (Homo sapiens, UniProt P53350)
T1 construct: purchased KINOMEscan
T1 sequence (P53350 whole entry): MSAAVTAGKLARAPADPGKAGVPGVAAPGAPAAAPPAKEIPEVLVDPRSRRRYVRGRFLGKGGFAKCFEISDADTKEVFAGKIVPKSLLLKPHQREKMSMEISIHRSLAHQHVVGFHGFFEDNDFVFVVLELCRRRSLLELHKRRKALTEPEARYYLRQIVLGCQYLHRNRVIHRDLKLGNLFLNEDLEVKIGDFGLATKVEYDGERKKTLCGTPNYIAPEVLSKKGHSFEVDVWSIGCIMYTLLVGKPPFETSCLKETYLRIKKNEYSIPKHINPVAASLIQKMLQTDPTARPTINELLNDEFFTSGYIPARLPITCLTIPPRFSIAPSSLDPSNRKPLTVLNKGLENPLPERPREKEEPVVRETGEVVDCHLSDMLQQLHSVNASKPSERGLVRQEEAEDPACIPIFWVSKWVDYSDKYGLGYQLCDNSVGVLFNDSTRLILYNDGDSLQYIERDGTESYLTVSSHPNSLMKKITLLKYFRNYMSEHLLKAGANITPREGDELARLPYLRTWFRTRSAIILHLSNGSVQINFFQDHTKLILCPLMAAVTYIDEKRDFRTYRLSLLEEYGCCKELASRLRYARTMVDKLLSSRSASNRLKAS
Description: (§1) We assessed the selectivity of members of this scaffold using the KINOMEscan methodology across a near comprehensive panel of 442 kinases [[18,27]].

panel of 442 kinases [2] = target: T2, panel of 442 kinases (Homo sapiens, UniProt Q96NX5)
T2 construct: purchased KINOMEscan
T2 sequence (Q96NX5 whole entry): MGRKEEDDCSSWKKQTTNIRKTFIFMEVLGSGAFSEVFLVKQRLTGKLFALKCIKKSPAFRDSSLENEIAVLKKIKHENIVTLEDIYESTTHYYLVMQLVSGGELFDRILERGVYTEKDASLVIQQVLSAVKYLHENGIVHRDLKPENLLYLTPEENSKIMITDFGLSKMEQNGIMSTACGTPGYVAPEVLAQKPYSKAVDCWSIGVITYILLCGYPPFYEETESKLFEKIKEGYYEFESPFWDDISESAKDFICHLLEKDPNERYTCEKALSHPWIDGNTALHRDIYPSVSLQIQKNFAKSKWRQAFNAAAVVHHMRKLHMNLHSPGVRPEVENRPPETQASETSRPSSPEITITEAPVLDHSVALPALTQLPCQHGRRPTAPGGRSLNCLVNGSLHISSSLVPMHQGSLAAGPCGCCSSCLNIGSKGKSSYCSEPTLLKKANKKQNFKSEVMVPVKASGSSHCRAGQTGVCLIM
Description: as §1

panel of 442 kinases [3] = target: T3, panel of 442 kinases (Homo sapiens, UniProt Q04771)
T3 construct: purchased KINOMEscan
T3 sequence (Q04771 21-509): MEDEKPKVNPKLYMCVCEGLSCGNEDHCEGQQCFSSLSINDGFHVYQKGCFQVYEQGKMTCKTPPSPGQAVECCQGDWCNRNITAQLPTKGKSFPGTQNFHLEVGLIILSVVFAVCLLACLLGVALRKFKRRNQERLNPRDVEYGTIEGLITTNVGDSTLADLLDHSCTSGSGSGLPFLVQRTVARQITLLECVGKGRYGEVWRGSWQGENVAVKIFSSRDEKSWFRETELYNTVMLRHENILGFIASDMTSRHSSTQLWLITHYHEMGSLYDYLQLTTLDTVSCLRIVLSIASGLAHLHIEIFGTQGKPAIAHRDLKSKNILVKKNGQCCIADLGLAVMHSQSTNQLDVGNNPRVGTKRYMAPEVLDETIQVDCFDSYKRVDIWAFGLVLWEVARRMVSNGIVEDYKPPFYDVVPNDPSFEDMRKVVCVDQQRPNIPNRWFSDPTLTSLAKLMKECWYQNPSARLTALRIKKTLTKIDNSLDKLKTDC
Description: as §1

Row | Compound | KINOMEscan: PLK1 (panel of 442 kinases [1]) | KINOMEscan: CAMK1G (panel of 442 kinases [2]) | KINOMEscan: ACVR1 (panel of 442 kinases [3])
1 | COc1cc(C(=O)N2CCC(N3CCN(C)CC3)CC2)ccc1Nc1ncc2c(n1)N(C)c1ccccc1C(=O)N2C [15 (LRRK2-IN-1)] | 0.7 | 74 | 98
2 | CCOc1cc(C(=O)N2CCC(N3CCN(C)CC3)CC2)ccc1Nc1ncc2c(n1)N(C1CCCC1)c1ccccc1C(=O)N2C [Compound 26] | 95 | 95 | 100
3 | COc1cc(C(=O)N2CCC(N3CCN(C)CC3)CC2)ccc1Nc1ncc2c(n1)N1CCc3cccc(c31)C(=O)N2C [Compound 24] | 0.2 | 56 | –
4 | COc1cc(C(=O)N2CCC(N3CCN(C)CC3)CC2)ccc1Nc1ncc2c(n1)N(C1CCCC1)c1ccccc1C(=O)N2C [Compound 25, 11-cyclopentyl-2-((2-methoxy-4-(4-(4-methylpiperazin-1-yl)piperidine-1-carbonyl)phenyl)amino)-5-methyl-5H-benzo[e]pyrimido[5,4-b][1,4]diazepin-6(11H)-one] | 43 | 90 | 100
